Reference: patent US9422241B2, “Demethylpenclomedine analogs and their use as anti-cancer agents” (priority 2005, dated 2016)
Values joined by “and” are separate entries in the source; they are usually repeats but may differ in a detail not shown here. Equal entries are not always repeated. “Also recorded” adds a separate entry of the source. Where two headings read alike, the source gives them in different places.

Assays:
KG breast CA = test: in vitro cytotoxic activity against KG breast cancer explants; assay type: cell-based, human
From the text: (§1) In one embodiment, preferred therapeutic agents are identified herein by assessing their in vitro cytotoxic activity against cultured model cancer cell lines. […] Suitable cell lines against which the disclosed compounds may be assessed are well known to those of skill in the art and include, by way of example, KG breast CA, LM breast CA and 9L rat glioma. […] The KG breast cancer explants were obtained from surgical biopsies of chest wall metastases from breast cancer. The patient had failed on extensive standard and experimental chemo/hormone and radiation therapy protocols. Minced biopsy specimens were grown in RPMI plus 10% FBS with antibiotics at 37° C. and 5% CO2 atmosphere. DM-CHOC-PEN was tested at 0.5-5 μg/mL concentrations in medium and incubated for 24 hrs.

MX-1 Breast Cancer = test: antitumor evaluation vs. MX-1 breast cancer xenograft
U251 GBM = assay type: in vivo; conditions: for ILS (percentage increased length of survival in days vs. control): U251 GBM in cerebrum, IP qd 1-5, dose not given; for LTC (long-term cure, >30-35 days): U251 GBM, cured/animals
Method: (§2) U251 and D54 tumors, 10^6 cultured cells in 0.03 ml volume were injected via a 25-gauge stainless steel 0.25 inch needle into the right cerebrum with angling toward the center of the brain. […] Doses varied to include an ca LD10 as described above for the MX-1 tumor. BCNU was used clinically to treated advanced gliomas and will be used as a positive control at optimal doses of 17, 10 and 6 mg/kg on a qd 1-5 schedule, since it is also the clinical standard for brain tumors and is very active against this tumor model. DM-PEN at 60, 90 and 135 mg/kg on the same schedule was included as a comparative control. Antitumor activity was assessed on the basis of survival, with the medial day of death of the controls (10 mice) typically being ca. 30-35 days. The in vivo tumor inhibition results are recorded in Table 3.

[1] = test system: patients with advanced solid tumors; conditions: one hour infusion for 5 consecutive days; dysmetria, ataxia, vertigo; cited from earlier work
Beagle dogs = test: acute IV toxicity in the dog; assay type: in vivo; conditions: for Observations (mortality): 2 M 2 F
Method: This example describes the acute toxicity of DM-CHOC-PEN in dogs. An acute study was performed in adult Beagle dogs, which consisted of: DM-CHOC-PEN administered once IV. Sixteen (16) adult beagle dogs (8 male and 8 female) divided into three groups received a single intravenous injection of DM-CHOC-PEN. The DM-CHOC-PEN was administered in 0.3% Klucel+1.92% Tween® 80, The results are recorded in Table 6.

[2] = therapeutic studies (not specified further); assay type: in vivo
mice [3] = test: acute IV toxicity in the mouse (single dose); assay type: in vivo; conditions: for Observations (mortality): 5 M 5 F
Method: This example describes the toxicity of DM-CHOC-PEN to mice as administered via intravenous injections and oral gavage. For the intravenous study, the dose range-finding phase consisted of five treatment groups (one male mouse/group) that received the test article as a single dose at respective dose levels of 50 (dose volume of 5 mL/kg), 100 (dose volume of 10 mL/kg), 150 (dose volume of 15 mL/kg), 250 (dose volume of 25 mL/kg), and 500 mg/kg (intended total dose volume of 50 mL/kg). The 500 mg/kg dose was intended to be a split dose that was to be administered in equal fractions (25 mL/kg/dose) approximately four hours apart (mortality precluded administration of the second portion of the dose). An additional group (one male mouse) served as the control and received the vehicle, soybean oil, at a dose volume of 25 mL/kg using the same route of administration as the treated groups. On Day 4, following the three-day observation period, all surviving dose range-finding animals were euthanized and discarded.
The main study phase consisted of five treatment groups (five mice/sex/group) that received a single dose of the test article at respective dose levels of 50, 100, 200, 400, and 600 mg/kg. An additional group (five mice/sex) served as the control and received the vehicle, 0.3% Klucel+1.92% Tween® 80, using the same dosing regimen as the treated groups. All doses were at a constant volume of 25 mL/kg.
Observations for mortality, morbidity, and the availability of food and water were conducted twice daily for all animals. Observations for clinical signs were conducted daily during the study (approximately one and four hours post-dose on Day 1 and then once daily). Body weights were measured on all animals after receipt, prior to randomization and on Day 1. In addition, body weights were measured for all surviving main study phase animals on Days 7 and 14. Macroscopic evaluations were performed on each main study phase animal at necropsy (Day 15).

9L rat glioma = test: in vitro cytotoxic activity against 9L rat glioma; assay type: cell-based
From the text: as §1

D54 Glioblastoma = test: antitumor evaluation vs. intracerebrally implanted D54 glioblastoma xenograft; assay type: in vivo, mice; conditions: D54 IC, 200 mg/kg IP q1d x 5d
Method: as §2

LM breast CA = test: in vitro cytotoxic activity against LM breast CA; assay type: cell-based
From the text: as §1

mice [4] = test: acute IV toxicity in the mouse (single dose); assay type: in vivo; conditions: Mouse CD2F1, 12 F, 21 days
mice [5] = test: sub-acute oral mouse toxicity study; conditions: daily for five days, 800-2000 mg/kg
Method: Sub-acute oral mouse toxicity study was conducted at MPI Research, Mattawan, Mich., under GLP conditions in male/female mice.

For COc1[nH]c(C(Cl)(Cl)Cl)c(Cl)c(=O)c1Cl [DM-PEN, 4-demethylpenclomedine, reference compound], the activity in vitro (KG breast CA; requires prior activation per the liver) was “not active in vitro”, the “% ILS” value (MX-1 Breast Cancer; MX-1 IC, 60 mg/kg IP q1d x 5d) was 12% and the “% LTS (given as survivors/animals)” value (MX-1 Breast Cancer; MX-1 IC, 60 mg/kg IP q1d x 5d) was 0/5. For the same molecule, the “ILS (percentage increased length of survival in days vs. control)” value (U251 GBM; Table 3) was 13%, the “LTC (long-term cure, >30-35 days)” value (U251 GBM; Table 3) was 0 and the complete responders (U251 GBM; Table 4 tumors, daily dosing for 5 days) was “did not produce any complete responders”. The “% ILS” value (U251 GBM; U251 IC, 90 mg/kg IP q1d x 5d) was 17% and the “% LTS (given as survivors/animals)” value (U251 GBM; U251 IC, 90 mg/kg IP q1d x 5d) was 0/5.

In the case of COc1nc(C(Cl)(Cl)Cl)c(Cl)c(OC)c1Cl [PEN, 3,5-dichloro-4,6-dimethoxy-2-(trichloromethyl)-pyridine], the “neurotoxicity in clinical trials” value [1] is listed as “dose-limiting neurotoxicity was observed”.

For O=NN(CCCl)C(=O)NCCCl [BCNU, reference compound], the “% ILS” value (U251 GBM; U251, BCNU positive control) was “+92%”.

With “4-Demethyl cholesteryloxycarbonylpenclomedine [DM-CHOC-PEN]” the “Acute IV (LD10)” value (Beagle dogs; Dog) was over 30 mg/kg, the LD50 (Beagle dogs; Dog, Beagle, IV single dose, 10 days) was over 30 mg/kg and the “Observations (mortality)” value (Beagle dogs; IV once 10 mg/kg) was “No deaths”. The “Observations (mortality)” value (Beagle dogs; IV once 20 mg/kg) was “No deaths”, the “Observations (mortality)” value (Beagle dogs; IV once 30 mg/kg) was “No deaths” and the “Comparable Human IV Dosage” value (Beagle dogs; estimated from dog LD10) was over 600 mg/m^2. For the same molecule, the “effects directly related to the test article” value (Beagle dogs; single IV injection 10, 20 and 30 mg/kg) was “no effects that were directly related to the test article”, the “dosing range in which responses were seen” value [2] was 150 to 225 mg/kg and the “in vitro IC50” value (KG breast CA; KG breast CA) was 0.7±0.4 micrograms/mL. For the same molecule, the IC50 (KG breast CA; KG breast cancer explants, 0.5-5 μg/mL in medium, incubated 24 hrs) was 1.1 ± 0.5 µg/mL, the “macroscopic findings at necropsy” value (mice [3]; Day 15) was “No macroscopic findings” and the LD50 (mice [3]; Mouse, IV single dose) was 390 mg/kg. For the same molecule, the “time until the last death” value (mice [3]; Mouse, IV, 14-day study) was 2 to 14 days, the “Comparable Human IV Dosage” value (mice [3]; estimated from mouse LD10) was 39 mg/m^2 and the body weight effects (mice [3]; mice surviving the 14-day observation period vs controls) was “No definitively clear treatment-related body effects”. The “intravenous LD10” value (mice [3]; mice, combined sexes, single dose) was 136 mg/kg, the “intravenous LD50” value (mice [3]; mice, combined sexes, 95% confidence limits 298 to 502 mg/kg) was 385 mg/kg and the “Observations (mortality)” value (mice [3]; single IV dose 50 mg/kg, 50 mg/kg) was 1 of 10 and 0 M and 1 F died. The “Observations (mortality)” value (mice [3]; single IV dose 100 mg/kg, 100 mg/kg) was “No animals died; also recorded: No deaths”, the “Observations (mortality)” value (mice [3]; single IV dose 200 mg/kg, 200 mg/kg) was 1 of 10 and 0 M and 1 F died and the “Observations (mortality)” value (mice [3]; single IV dose 400 mg/kg, 400 mg/kg) was 7 of 10 and 4 M and 3 F died. The “Observations (mortality)” value (mice [3]; single IV dose 600 mg/kg, 600 mg/kg) was 8 of 10 and 5 M and 3 F died, the clinical signs (mice [3]; single IV dose 50-600 mg/kg, both sexes, generally dose-dependent) was “decreased activity, rapid/difficult/slow/shallow breathing, limbs splayed, tremors and skin cold to touch” and the “deaths in dose range-finding phase” value (mice [3]; single IV dose in soybean oil, at 0, 100, 250 and 500 mg/kg, one male mouse/group) was “immediate deaths”. The “in vitro IC50” value (9L rat glioma) was 1.1±0.4 micrograms/mL, the “% Increase in Life Span (% ILS)” value (MX-1 Breast Cancer; MX-1 IC, 25 mg/kg IP q1d x 5d) was “+6%” and the “% Increase in Life Span (% ILS)” value (MX-1 Breast Cancer; MX-1 IC, 50 mg/kg IP q1d x 5d) was “+20%”. For the same molecule, the “% Long Term Survivors (% LTS)” value (MX-1 Breast Cancer; MX-1 IC, printed on the 25 mg/kg line (25 and 50 mg/kg tested), IP q1d x 5d) was 17% and 17 (1/6 CR) %, the weight loss (MX-1 Breast Cancer; MX-1 tumor mice, daily dosing for 5 days) was “no weight loss” and the “% Increase in Life Span (% ILS)” value (D54 Glioblastoma) was “+3%”. For the same molecule, the “% Long Term Survivors (% LTS)” value (D54 Glioblastoma) was 20 (1/5 CR) %, the neurotoxicity (U251 GBM; DM-CHOC-PEN treatment regimen in the animal studies) was “did not demonstrate neurotoxicity” and the long-term survivors (U251 GBM; Table 3, U251) was 20%. For the same molecule, the “ILS (percentage increased length of survival in days vs. control)” value (U251 GBM; Table 3) was 29%, the “LTC (long-term cure, >30-35 days)” value (U251 GBM; Table 3) was “⅕” and the “increase in survival compared to DM-PEN” value (U251 GBM; U251, IP daily x 5 days) was “two-fold”. The tumor burden reduction (U251 GBM; U251, IP daily x 5 days) was “log107”, the “% Increase in Life Span (% ILS)” value (U251 GBM; U251 IC, 135 mg/kg IP q1d x 5d) was “+29%” and the “% Long Term Survivors (% LTS)” value (U251 GBM; U251 IC, 135 mg/kg IP q1d x 5d, LTS >90 days, 135 mg/kg) was 20% and 20 (1/5 CR) %. For the same molecule, the weight loss (U251 GBM; U251 xenograft mice, IP daily x 5) was “no weight loss”, the “in vitro IC50” value (LM breast CA) was 1.0±0.5 micrograms/mL and the LD50 (mice [4]) was 390 mg/kg. The mortality (mice [5]) was “Only one death occurred at 800 mg/kg”, the seizures (mice [5]) was “No seizures noted” and the clinical observations (mice [5]; similar in controls) was “some degree of lethargy and unkept appearance”.
